Measurements: ChEMBL document CHEMBL3994674, “Toward Resolving the Resveratrol Conundrum: Synthesis and in Vivo Pharmacokinetic Evaluation of BCP-Resveratrol” (ACS Med Chem Lett, 2017)
In brackets after ≈: the same amount, converted by molar mass.

Experiments:
[1] = Thermodynamic solubility in pH 7.4 PBS at 10 mg/ml after 1 hr by LC-Ms/MS based shake flask method; assay type: physicochemical; details: read-out: Therm_solubility
[2] = Half life in human hepatocytes at 5 uM by LC-MS/MS analysis; assay type: ADME, cell-based, Hepatocyte
[3] = system: SU-DHL10; assay: Cytotoxicity against human SU-DHL10 cells assessed as growth inhibition at 30 uM after 72 hrs by CellTitre-Glo luminescent assay relative to control; assay type: functional; details: SU-DHL10, 72 h, read-out: GI
[4] = Cmax in Sprague-Dawley rat at 20 mg/kg, po administered as single dose via gavage after 5 mins by HPLC-MS analysis; assay type: ADME, organism-based; set-up: dose 20 mg/kg, route oral; details: in vivo
[5] = Apparent intrinsic clearance in rat hepatocytes assessed per million cells at 5 uM by LC-MS/MS analysis; assay type: ADME, cell-based, Hepatocyte
[6] = Apparent intrinsic clearance in human hepatocytes assessed per million cells at 5 uM by LC-MS/MS analysis; assay type: ADME, cell-based, Hepatocyte
[7] = Tmax in Sprague-Dawley rat at 20 mg/kg, po administered as single dose via gavage by HPLC-MS analysis; assay type: ADME, organism-based; details: in vivo
[8] = system: MDA-MB-231; assay: Cytotoxicity against human MDA-MB-231 cells assessed as growth inhibition at 30 uM after 72 hrs by CellTitre-Glo luminescent assay relative to control; assay type: functional; details: MDA-MB-231, 72 h, read-out: GI
[9] = Octanol/phosphate buffer partition co-efficient, log D of the compound at 75 uM at pH 7.4 after 2 hrs by LC-Ms/MS based shake-flask method; assay type: physicochemical
[10] = Plasma concentration in Sprague-Dawley rat at 20 mg/kg, po administered as single dose via gavage up to 4 hrs by HPLC-MS analysis; assay type: ADME, organism-based
[11] = AUC (0 to last) in Sprague-Dawley rat at 20 mg/kg, po administered as single dose via gavage after 4 hrs by HPLC-MS analysis; assay type: ADME, organism-based; set-up: dose 20 mg/kg, route oral, time 0 - last; details: in vivo
[12] = Half life in Sprague-Dawley rat at 20 mg/kg, po administered as single dose via gavage by HPLC-MS analysis; assay type: ADME, organism-based; details: in vivo
[13] = Apparent clearance in Sprague-Dawley rat at 20 mg/kg, po administered as single dose via gavage by HPLC-MS analysis; assay type: ADME, organism-based; details: in vivo
[14] = Half life in rat hepatocytes at 5 uM by LC-MS/MS analysis; assay type: ADME, cell-based, Hepatocyte
[15] = system: MIA PaCa-2; assay: Cytotoxicity against human MIAPaCa2 cells assessed as growth inhibition at 30 uM after 72 hrs by CellTitre-Glo luminescent assay relative to control; assay type: functional; details: MIA PaCa-2, 72 h, read-out: GI
[16] = Drug level in human hepatocytes treated with resveratrol at 5 uM by LC-MS/MS analysis; assay type: ADME, cell-based, Hepatocyte
[17] = Cmax in CD rat at 50 mg/kg/day, po administered via gavage every 24 hrs for 14 consecutive days measured on day 1 post dose by HPLC-MS analysis; assay type: ADME, organism-based; set-up: dose 50 mg/kg/day, route oral; details: in vivo
[18] = AUC (0 to last) in Wistar rat at 20 mg/kg, po by HPLC-MS analysis; assay type: ADME, organism-based; set-up: dose 20 mg/kg, time 0 - last, route oral; details: in vivo
[19] = Drug metabolism in human hepatocytes assessed as resveratrol-sulfate formation at 5 uM by LC-MS/MS analysis; assay type: ADME, cell-based, Hepatocyte
[20] = Drug metabolism in human hepatocytes assessed as resveratrol-glucuronide formation at 5 uM by LC-MS/MS analysis; assay type: ADME, cell-based, Hepatocyte
[21] = Tmax in Wistar rat at 20 mg/kg, po by HPLC-MS analysis; assay type: ADME, organism-based; details: in vivo
[22] = Half life in Wistar rat at 20 mg/kg, po by HPLC-MS analysis; assay type: ADME, organism-based; details: in vivo
[23] = Apparent clearance in Wistar rat at 20 mg/kg, po by HPLC-MS analysis; assay type: ADME, organism-based; details: in vivo
[24] = Cmax in CD rat at 50 mg/kg/day, po administered via gavage every 24 hrs for 14 consecutive days measured on day 14 post dose by HPLC-MS analysis; assay type: ADME, organism-based; set-up: dose 50 mg/kg/day, route oral; details: in vivo
[25] = Cmax in Wistar rat at 20 mg/kg, po by HPLC-MS analysis; assay type: ADME, organism-based; set-up: dose 20 mg/kg, route oral; details: in vivo
[26] = system: MDA-MB-231; assay: Cytotoxicity against human MDA-MB-231 cells assessed as growth inhibition after 72 hrs by CellTitre-Glo luminescent assay; assay type: functional; details: MDA-MB-231, 72 h
[27] = system: MIA PaCa-2; assay: Cytotoxicity against human MIAPaCa2 cells assessed as growth inhibition after 72 hrs by CellTitre-Glo luminescent assay; assay type: functional; details: MIA PaCa-2, 72 h
[28] = system: SU-DHL10; assay: Cytotoxicity against human SU-DHL10 cells assessed as growth inhibition after 72 hrs by CellTitre-Glo luminescent assay; assay type: functional; details: SU-DHL10, 72 h

Row | Structure (SMILES) | solubility thermodynamic at 1 h [1] [µg/mL] | half-life at 5 µM [2] [min] | inhibition of growth at 30 µM [3] [%] | CLH(app) [5] [µL/min] | CLH(app) [6] [µL/min] | inhibition of growth at 30 µM [8] [%] | logD at 2 h, 75 µM [9] | half-life at 5 µM [14] [min] | inhibition of growth at 30 µM [15] [%] | Drug metabolism [16] | further results
1 | Oc1cc(O)cc(/C=C/C23CC(O)(C2)C3)c1 | 619 (≈ 2840 µM) | 90.4 | 41 | 57.4 | 7.7 | 22 | 1.9 | 24.2 | 30 |  | Cmax [4]: 942 ng/mL; Tmax [7]: 4.02 min; concentration at 4 h [10]: 85 ng/mL; AUC(0-t) at 4 h [11]: 587 ng·h/mL; half-life [12]: 156 min; CL/F [13]: 21.8 L/h/kg
2 | O=S(=O)(O)Oc1ccc(/C=C/c2cc(O)cc(O)c2)cc1 |  |  |  |  |  |  |  |  |  | Metabolite_Detected | 
3 | Oc1ccc(/C=C/c2cc(O)cc(O)c2)cc1 [RESVERATROL] | 19 (≈ 83.2 µM) | 23.2 | 46 | > 184.8 | 29.9 | 20 | 2.9 | < 7.5 | 30 |  | Cmax [17]: 76.7 ng/mL; AUC(0-t) [18]: 47.5 ng·h/mL; Drug metabolism [19]: Metabolite_Detected; Drug metabolism [20]: Metabolite_Detected; Tmax [21]: 4.98 min; half-life [22]: 11.4 min; CL/F [23]: 409 L/h/kg; Cmax [24]: 176 ng/mL; Cmax [25]: 273 ng/mL
4 | COc1ccc(C[C@H](N)C(=O)N[C@H]2[C@@H](O)[C@H](n3cnc4c(N(C)C)ncnc43)O[C@@H]2CO)cc1 [PUROMYCIN] |  |  |  |  |  |  |  |  |  |  | CC50 [26]: 480 nM; CC50 [27]: 200 nM; CC50 [28]: 110 nM
5 | O=C(O)[C@H]1O[C@@H](Oc2ccc(/C=C/c3cc(O)cc(O)c3)cc2)[C@H](O)[C@@H](O)[C@@H]1O |  |  |  |  |  |  |  |  |  | Metabolite_Detected | 
